Source: patent publication US7226783B1, “Vanillin production” (David Michael & Co., Inc., priority 1997, dated 2007)

Legend:
[1] = tested on: alcohol dehydrogenase from Vanilla planifolia embryo culture (vanillyl alcohol dehydrogenase, VAD); experiment: Substrate specificity of vanillyl alcohol dehydrogenase (VAD); format: biochemical; settings: for Activity with the compound as substrate, NADH: cofactor NADH; for Activity with the compound as substrate, NADPH: cofactor NADPH
Description: We have purified and characterized the activity of VAD that catalyze the reduction of vanillin to vanillyl alcohol. The enzyme was identified as an NADH or NADPH-dependent alcohol dehydrogenase. The purification protocol was as set forth below.
Crude enzyme extract: Tissue was homogenized in 0.05 M actetate-Na buffer pH 4.0 (in proportion, 1 g of the tissue and 5 ml of the buffer) in an ice bath, using Polytrone homogenizer, at 20,000 revolutions of the blade per min. The homogenate was centrifuged at 13000 g for 15 min at 4° C. and the supernatant served as the crude enzyme source.
Ammonium sulfate fractionation and molecular sieving: Crude enzyme extract (100 ml) was supplied with ammonium sulfate in an ice bath up to 60% of saturation (44.4 g of Ammonium sulphate per 100 ml). The precipitate was centrifuged and discarded. The supernatant was supplied with ammonium sulfate up to 90% of saturation (total 64.6 g per 100 ml of crude extract). The precipitate was collected (10 min centrifugation at 10,000 g), dissolved in 7 ml of extraction buffer and subjected to molecular sieving at Sephacryl S-300 High Load Column (LKB Pharmacia) 2.6×60 cm, in 0.1 M pH 4.0 acetate-Na buffer. The flow rate was adjusted to 1 ml/min and 5 ml fractions were collected. The protein elution profile was monitored at 280 nm. Five fractions (of a total of 50) containing dehydrogenase activity (130–155 ml of the column eluate) were collected.
The column was developed with 0.5 M Tris/HCL buffer pH 7.4 in 0.0–1.0 M NaCl gradient (total gradient volume—70 ml) and 2.5 ml fractions were collected. Vanillyl alcohol dehydrogenase was released from the column between 0.3–0.4 M NaCl. Fractions containing VAD activity were dialysed overnight against 0.05 M caetate-Na buffer pH 4.0 and concentrated up to 50 times using Minicon concentrating filters (Amicon). […]

Vanilla embryo culture = experiment: Feeding vanilla embryo culture with vanillin precursors, HPLC analysis of metabolites; format: cell-based, Vanilla planifolia
Text: We derived a scheme for the vanillin biosynthetic pathway by analysis of metabolites in cultured embryos and by experiments with feeding of precursors and intermediates. This scheme is shown in FIG. 1 and the experiments are described below.
(§1) Embryo cultures of Vanilla planifolia were established as described in Example 1. The procedures used to extract phenolics from the cultured embryo cells and to analyze the extracts by high pressure liquid chromatography (HPLC) were as described generally by Havkin-Frenkel et al., Plant Cell, Tissue and Organ Culture 45: 133–136 (1996).
(§2) In the extraction procedure, 3 ml of 0.05 M sodium acetate buffer, pH 5.5, was added to about 1 gram of fresh culture. Samples were placed in boiling water for three minutes, then chilled. The cells were next homogenized in a Polytron blender for 1 minute at medium speed. A β-glucosidase solution was added to the homogenized cells to give a final concentration of 0.2%. Each sample was then incubated at 37° C. for 5 hr. Next, 17 ml of 95% ethanol was added, after which incubation at 37° C. was continued for an additional 24 hrs. The extract was then filtered and the ethanol evaporated. The filtrate was extracted twice using ethyl acetate, then extracted twice with ethyl acetate acidified to pH 3 with HCl. The extracts were combined and the ethyl acetate evaporated. The residue was dissolved in 1 ml of acidified methanol and filtered with a 0.45 μm syringe filter for HPLC analysis.
Extractions of metabolites from culture medium was similar to the cell extraction protocol. Five ml of spent medium was incubated in a β-glucosidase solution at 37° C. for 24 hrs. The medium was then extracted with ethyl acetate and the organic portions combined and evaporated, as for the cell extracts.
(§3) Metabolite levels were measured with a Hewlett Packard 1090L or a Waters HPLC with a UV detector at 280 nm. The Waters HPLC was also equipped with a diode array detector to confirm the identities of the various intermediates, and the identities of the various intermediates were further confirmed by mass spectrometry. The column was a Supelco C-18 DB column of dimensions 250 mm×4.6 mm and a particle size of 5 μm. The mobile phase contained methanol and water, each of which was acidified with 1.25% acetic acid. The flow rate was 1 ml/min, with a solvent gradient as follows: […]
Results of selected experiments in which precursors or elicitors were added to vanilla cultures are set forth below. These experiments were performed in accordance with the procedures set forth in Examples 1–4.

[2] = tested on: p-hydroxybenzaldehyde synthase; experiment: Substrate specificity of p-hydroxybenzaldehyde synthase (chain shortening enzyme), crude enzyme; format: biochemical, Vanilla planifolia; settings: for Result: conversion of the compound as substrate to the expected chain-shortened product: crude enzyme, HPLC detection of product
Description: Sterile plant material (2 g) 2–3 weeks after subculture, was homogenized in a cooled Potter glass homogenizer with 4 ml of 0.1 M HEPES buffer, pH 8.0, containing 10 mM DTT. The homogenate was next centrifuged at 4° C. at 15.000× g for 15 min. Resultant supernatant (4 ml) was filtered through Sephadex G-25 column (void volume 3–4 ml.) Equilibrated with Tris/HCL buffer pH7, containing 10 mM DTT. The column was washed with the same buffer and 2 ml fraction following the void volume was collected. This fraction was used as the crude enzyme source.
The p-HO-aldehyde synthase activity was determined in the following mixture:
crude enzyme extract: 10 μl
(substrate=1.8 mM p-coumarate in 0.1 M Tris/HCl, pH 8.0 with 10 mM DTT)
The mixture was incubated for 10–60 min (for longer incubation times, the activity was not proportional with time) at 35° C. and next, the reaction stopped by addition of 200 μl of acidified methanol (10% acetic acid in methanol). The slurry was passed through 0.45 μm filter and the filtrate (50 μl) injected into HPLC Bio-sil 18 HL 90-5 column (Reversed phase, 250 mm×4.6 mm). […] The eluate was monitored at 280 nm and retention time of the reaction product was compared to retention time of the standard compounds (benzaldehyde, p-HO-benzaldehyde, vanillin, protocatechuic aldehyde, p-coumaric acid, caffeic acid, ferulic acid, coniferyl aldehyde). The results were quantified using LKB Bromma 2221 Integrator.
As a potential substrates for chain shortening enzyme the following compounds were tested: […]

[3] = tested on: Vanilla planifolia Embryo Culture; experiment: Malic acid elicitation of embryo culture, HPLC analysis of intermediary metabolites; format: cell-based
Description: as §1, §2, §3
Malic acid in concentrations of 0.1 to 3% was applied as a disodium salt to the growing medium. The culture was maintained for 1 to 15 days, then was extracted as described in Example 2.
Cultures were grown in medium containing 3% malic acid by weight, for 7 days.

[4] = tested on: V. planifolia embryo culture; experiment: Uptake of exogenously added vanillin and transformation to vanillyl alcohol in embryo culture; format: cell-based, Vanilla planifolia
Text: FIG. 3. Graph showing uptake of exogenously added vanillin and its transformation to vanillyl alcohol by vanillyl alcohol dehydrogenase in V. planifolia embryo culture. V(T)=vanillin in tissue; V(M)=vanillin in medium; VAL(T)=vanillyl alcohol in tissue; VAL(M)=vanillyl alcohol in medium.
Similarly, vanilla embryo culture that can be elicited by various elicitors to produce vanillin accumulates vanillyl alcohol as a final product. It is important to state at this stage that all the intermediates in the pathway are found mainly as glucosides.

[5] = 3% malic acid by weight in medium, 7 days

CCOc1cc(C=O)ccc1O [4-hydroxy-3-ethoxybenzaldehyde]
Activity with the compound as substrate, NADH [1]: 0.42 nmoles · gfwt^−1 · min^−1

CCOc1cc(C=O)ccc1OC [4-methoxy-3-ethoxybenzaldehyde]
Activity with the compound as substrate, NADH [1]: 0.00 nmoles · gfwt^−1 · min^−1

COc1ccc(C=O)cc1O [4methoxy-3-hydroxybenzaldehyde]
Activity with the compound as substrate, NADH [1]: 0.00 nmoles · gfwt^−1 · min^−1
Activity with the compound as substrate, NADPH [1]: 0.00 nmoles · gfwt^−1 · min^−1

CC=O [Acetaldehyde]
substrate preference of VAD [1]: lower
Activity with the compound as substrate, NADH [1]: 0.26 nmoles · gfwt^−1 · min^−1

O=Cc1ccc(O)cc1 [BA, p-hydroxybenzaldehyde]
Activity with the compound as substrate, NADH [1]: 0.32 nmoles · gfwt^−1 · min^−1
Activity with the compound as substrate, NADPH [1]: 0.14 nmoles · gfwt^−1 · min^−1
CA (p-coumaric acid) content of culture (Vanilla embryo culture; precursor fed at 1 mM): 125 mg/100 g dry wt.
HBA (p-hydroxybenzyl alcohol) content of culture (Vanilla embryo culture; precursor fed at 1 mM): 10305 mg/100 g dry wt.
PRO-ALD (3,4-dihydroxybenzaldehyde) content of culture (Vanilla embryo culture; precursor fed at 1 mM): 5.8 mg/100 g dry wt.
VN (vanillin) content of culture (Vanilla embryo culture; precursor fed at 1 mM): 0.015 mg/100 g dry wt.
VN ALC (vanillyl alcohol) content of culture (Vanilla embryo culture; precursor fed at 1 mM): 12.3 mg/100 g dry wt.

O=Cc1ccccc1 [Benzaldehyde]
Activity with the compound as substrate, NADH [1]: 0.33 nmoles · gfwt^−1 · min^−1
Activity with the compound as substrate, NADPH [1]: 0.18 nmoles · gfwt^−1 · min^−1

O=C(O)/C=C/c1ccc(O)cc1 [CA, p-coumaric acid]
specificity of the tested enzyme towards substrate [2]: very high specificity
Result: conversion of the compound as substrate to the expected chain-shortened product [2]: positive
CA (p-coumaric acid) content of culture (Vanilla embryo culture; precursor fed at 1 mM): 220 mg/100 g dry wt.
HBA (p-hydroxybenzyl alcohol) content of culture (Vanilla embryo culture; precursor fed at 1 mM): 13000 mg/100 g dry wt.
PRO-ALD (3,4-dihydroxybenzaldehyde) content of culture (Vanilla embryo culture; precursor fed at 1 mM): 10 mg/100 g dry wt.
VN (vanillin) content of culture (Vanilla embryo culture; precursor fed at 1 mM): 0.01 mg/100 g dry wt.
VN ALC (vanillyl alcohol) content of culture (Vanilla embryo culture; precursor fed at 1 mM): 10 mg/100 g dry wt.

O=C(O)/C=C/c1ccc(O)c(O)c1 [CAF, caffeic acid]
Result: conversion of the compound as substrate to the expected chain-shortened product [2]: negative
CA (p-coumaric acid) content of culture (Vanilla embryo culture; precursor fed at 2 mM): 189 mg/100 g dry wt.
HBA (p-hydroxybenzyl alcohol) content of culture (Vanilla embryo culture; precursor fed at 2 mM): 11350 mg/100 g dry wt.
PRO-ALD (3,4-dihydroxybenzaldehyde) content of culture (Vanilla embryo culture; precursor fed at 2 mM): 21 mg/100 g dry wt.
VN (vanillin) content of culture (Vanilla embryo culture; precursor fed at 2 mM): 0.5 mg/100 g dry wt.
VN ALC (vanillyl alcohol) content of culture (Vanilla embryo culture; precursor fed at 2 mM): 32 mg/100 g dry wt.

O=CC=Cc1ccccc1 [Cinnamylaldehyde]
Activity with the compound as substrate, NADH [1]: 0.00 nmoles · gfwt^−1 · min^−1

COc1cc(/C=C/C(=O)O)ccc1O [FA, ferulic acid]
Result: conversion of the compound as substrate to the expected chain-shortened product [2]: negative
CA (p-coumaric acid) content of culture (Vanilla embryo culture; precursor fed at 25 mM): 136 mg/100 g dry wt.
HBA (p-hydroxybenzyl alcohol) content of culture (Vanilla embryo culture; precursor fed at 25 mM): 11007 mg/100 g dry wt.
PRO-ALD (3,4-dihydroxybenzaldehyde) content of culture (Vanilla embryo culture; precursor fed at 25 mM): 4.8 mg/100 g dry wt.
VN (vanillin) content of culture (Vanilla embryo culture; precursor fed at 25 mM): 11.8 mg/100 g dry wt.
VN ALC (vanillyl alcohol) content of culture (Vanilla embryo culture; precursor fed at 25 mM): 23.8 mg/100 g dry wt.

OCc1ccc(O)cc1 [HBA, p-hydroxybenzyl alcohol]
CA (p-coumaric acid) content of culture (Vanilla embryo culture; precursor fed at 1 mM): 158 mg/100 g dry wt.
HBA (p-hydroxybenzyl alcohol) content of culture (Vanilla embryo culture; precursor fed at 1 mM): 13100 mg/100 g dry wt.
PRO-ALD (3,4-dihydroxybenzaldehyde) content of culture (Vanilla embryo culture; precursor fed at 1 mM): 4.6 mg/100 g dry wt.
VN (vanillin) content of culture (Vanilla embryo culture; precursor fed at 1 mM): 0.001 mg/100 g dry wt.
VN ALC (vanillyl alcohol) content of culture (Vanilla embryo culture; precursor fed at 1 mM): 9.6 mg/100 g dry wt.
fate of HBA in tissue homogenates (Vanilla embryo culture; tissue homogenates): rapidly metabolized to dihydroxybenzyl aldehyde

O=C(O)CC(O)C(=O)O (stereo not drawn) [Malic Acid, malic acid]
BA content of culture [3, 5]: 0.02% of Dry Weight
HBA content of culture [3, 5]: 3.60% of Dry Weight
HMBA (vanillyl alcohol) content of culture [3, 5]: 0.700% of Dry Weight
HY content of culture [3, 5]: 0.050% of Dry Weight
PC content of culture [3, 5]: 0.20% of Dry Weight
PROALD content of culture [3, 5]: 0.025% of Dry Weight
VN (vanillin) content of culture [3, 5]: 0.072% of Dry Weight
stimulation of vanillin production relative to standard conditions ([3]; 3% malic acid by weight, 7 days, embryo cultures): more than tenfold
vanillin yield ([3]; 3% malic acid, embryo cultures, increase from 5): 72 mg/100 g tissue
effect on production/accumulation of vanillin and vanillyl alcohol ([3]; malic acid 0.1 to 3% as disodium salt, 1 to 15 days): induced the production/accumulation of vanillin and vanillyl alcohol

COc1cc(CO)ccc1O [VN. ALC., vanillyl alcohol]
CA (p-coumaric acid) content of culture (Vanilla embryo culture; precursor fed at 2 mM): 206 mg/100 g dry wt.
HBA (p-hydroxybenzyl alcohol) content of culture (Vanilla embryo culture; precursor fed at 2 mM): 10350 mg/100 g dry wt.
PRO-ALD (3,4-dihydroxybenzaldehyde) content of culture (Vanilla embryo culture; precursor fed at 2 mM): 1.1 mg/100 g dry wt.
VN (vanillin) content of culture (Vanilla embryo culture; precursor fed at 2 mM): 8.5 mg/100 g dry wt.
VN ALC (vanillyl alcohol) content of culture (Vanilla embryo culture; precursor fed at 2 mM): 882 mg/100 g dry wt.

COc1cc(C=O)ccc1O [Vn, vanillin]
substrate preference of VAD [1]: most preferred substrates
Activity with the compound as substrate, NADH [1]: 1.26 nmoles · gfwt^−1 · min^−1
Activity with the compound as substrate, NADPH [1]: 0.97 nmoles · gfwt^−1 · min^−1
fate of compound applied to the growing medium of embryo culture [4]: rapid uptake and reduction of the applied compound to vanillyl alcohol

COc1cc(/C=C/C=O)ccc1O [coniferyl aldehyde, 4-HO-3-metoxycinnamyl aldehyde]
Result: conversion of the compound as substrate to the expected chain-shortened product [2]: negative
Activity with the compound as substrate, NADH [1]: 0.00 nmoles · gfwt^−1 · min^−1

O=C(O)/C=C/c1ccccc1 [t-cinnamic acid]
Result: conversion of the compound as substrate to the expected chain-shortened product [2]: negative
